How the values were obtained:
Type in all cases: cell-based
S. constellatus T29 = assay: Deferred antagonism assay, producer S. salivarius K12; conditions: Streptococcus constellatus, T29, K12, read-out: Size of zone inhibition normalised to control, S. constellatus T29
Protocol: (§1) 1-2 producer strain colonies were transferred from a stock plate into 900 μL of suspension solution using a fresh cotton swab. Following this, suspensions were vortexed, and a sample was inoculated onto solid culture media using a fresh cotton swab. The inoculation was a streak that runs diametrically across the agar plate in a 1.5 cm wide strip. The plate was then incubated. Following incubation all visible colonies were removed by swabbing them from the agar surface. The plates were then treated with chloroform by dispensing 2 ml of chloroform onto 4 cm×4 cm piece of cloth and sealing the inverted agar plate on top for 30 minutes. The plates were then air dried for 30 minutes following chloroforming. 1-2 indicator strain colonies were then transferred from a stock plate into complementary suspension solution. The suspensions were then vortexed, and a sample was inoculated onto the same agar surface. These samples were streaked in a perpendicular direction to the initial producer streak.
(§2) Each indicator streak was prepared with fresh a suspension containing cells from a corresponding stock plate containing the indicator strain of interest. Indicator strains suspension samples were transferred using a fresh cotton swab. Results were measured by qualitatively reviewing the subsequent (if any) sizes of the zones of inhibition (ZOI) of indicator strain colony growth. A positive result is when there is a distinctive reduction or complete inhibition of indicator colony growth on the culture medium.
(§3) CABCa agar plates containing various concentrations of saccharide were prepared according to the methods described in Method 1. Producer strains were transferred from stock agar plates into 900 μL THB using a fresh cotton swab. A plastic spread plater was cut to approximately 1.2 cm width and then dipped into ethanol and left to air dry to ensure sterility. A 100 μL sample of the producer strain suspension was then dispensed onto the agar surface in a straight line running diametrically across the agar surface in (approximately) 20 μL spots. The spots were spaced approximately 1.5 cm apart from each other. The plastic spreader was then used to evenly distribute the spots across the agar surface in a 1.5 cm wide strip. This step was taken to ensure an even producer streak was inoculated onto the agar surface and provided an approximate measure of the initial inoculum concentration. Separate plastic spreaders were used for samples containing different producer strains. The samples were left to soak into the agar surface until there was no visible liquid remaining on the agar surface (approximately 20 minutes). Following producer streak preparations, the deferred antagonism assay protocol was followed as per Method 2. Results were recorded by measuring the size of the zone of inhibition (ZOI) in mm.
(§4) A dose response assay was carried out according to method 3 above, except a 1.2 cm streak was used. For the individual saccharide testing the pH of the producer streak was adjusted after the growth of producer to change the acidic conditions.
(§5) A deferred antagonism assay was conducted using K12 or M18 raw ingredient suspended in Todd Hewitt broth (THB). This was spread as a 1.2 cm streak containing approximately 1-2×10^6 cfu down the middle of a CABCa control or CABCa galactose supplemented test plate. After 18 hrs growth at 37° C. with 5% CO2, bacterial growth was removed, and the pH of the agar in the initial streak was measured and adjusted to a pH of 6.5-7.5 using 0.5M sodium carbonate pH11 before sterilizing the agar surface using chloroform vapor. Bacterial test strains were suspended in i-THB before being swabbed across the plates perpendicular to the initial streak. Plates were incubated for a further 18 hrs incubation at 37° C. with 5% CO2 before measuring (mm) any zones of inhibition for each test strain, […]

[1] = tested on: S. saprophyticus ATCC 15305; assay: as above; conditions: Staphylococcus saprophyticus, ATCC15305, K12, read-out: Size of zone inhibition normalised to control, S. saprophyticus ATCC 15305
Protocol: as §1, §2, §3, §4, §5

S. pyogenes 71-698 = assay: as above; conditions: Streptococcus pyogenes, 71698, K12, read-out: Size of zone inhibition normalised to control, S. pyogenes 71-698
Protocol: as §1, §2, §3, §4, §5

S. pneumoniae D39 = assay: as above; conditions: Streptococcus pneumoniae, D39, K12, read-out: Size of zone inhibition normalised to control, S. pneumoniae D39
Protocol: as §1, §2, §3, §4, §5

S. aureus A222 = assay: as above; conditions: K12
Protocol: as §1, §2, §3, §4, §5

S. mutans OMZ175 = assay: as above; conditions: Streptococcus mutans, OMZ175, K12, read-out: Size of zone inhibition normalised to control, S. mutans OMZ175
Protocol: as §1, §2, §3, §4, §5

M. catarrhalis TW1 = assay: Deferred antagonism assay, producer S. salivarius M18
Protocol: as §1, §2, §3, §4

indicator strains = assay: Deferred antagonism assay, producer S. salivarius M18: total strains inhibited
Protocol: as §1, §2, §3, §4, §5

O=C[C@H](O)[C@@H](O)[C@@H](O)[C@H](O)CO [Galactose, D-galactose]
zone of inhibition at 0.5 % strength (S. constellatus T29; Galactose 0.5% w/w): 14 mm | zone of inhibition at 1.25 % strength (S. constellatus T29; Galactose 1.25% w/w): 15 mm | zone of inhibition at 1.7 % strength (S. constellatus T29; Galactose 1.7% w/w): 12 mm | zone of inhibition at 2.5 % strength (S. constellatus T29; Galactose 2.5% w/w): 13 mm | zone of inhibition at 3.3 % strength (S. constellatus T29; Galactose 3.3% w/w): 10 mm | zone of inhibition at 5 % strength (S. constellatus T29; Galactose 5% w/w): 0 mm | zone of inhibition at 0.5 % strength ([1]; Galactose 0.5% w/w): 0 mm | zone of inhibition at 1.25 % strength ([1]; Galactose 1.25% w/w): 0 mm | zone of inhibition at 1.7 % strength ([1]; Galactose 1.7% w/w): 0 mm | zone of inhibition at 2.5 % strength ([1]; Galactose 2.5% w/w): 0 mm | zone of inhibition at 3.3 % strength ([1]; Galactose 3.3% w/w): 0 mm | zone of inhibition at 5 % strength ([1]; Galactose 5% w/w): 0 mm | zone of inhibition at 0.5 % strength (S. pyogenes 71-698; Galactose 0.5% w/w): 4.5 mm | zone of inhibition at 1.25 % strength (S. pyogenes 71-698; Galactose 1.25% w/w): 3.5 mm | zone of inhibition at 1.7 % strength (S. pyogenes 71-698; Galactose 1.7% w/w): 3.5 mm | zone of inhibition at 2.5 % strength (S. pyogenes 71-698; Galactose 2.5% w/w): 5.5 mm | zone of inhibition at 3.3 % strength (S. pyogenes 71-698; Galactose 3.3% w/w): 1.5 mm | zone of inhibition at 5 % strength (S. pyogenes 71-698; Galactose 5% w/w): 0 mm | zone of inhibition at 0.5 % strength (S. pneumoniae D39; Galactose 0.5% w/w): 8 mm | zone of inhibition at 1.25 % strength (S. pneumoniae D39; Galactose 1.25% w/w): 3 mm | zone of inhibition at 1.7 % strength (S. pneumoniae D39; Galactose 1.7% w/w): 2 mm | zone of inhibition at 2.5 % strength (S. pneumoniae D39; Galactose 2.5% w/w): 6 mm | zone of inhibition at 3.3 % strength (S. pneumoniae D39; Galactose 3.3% w/w): 0 mm | zone of inhibition at 5 % strength (S. pneumoniae D39; Galactose 5% w/w): 0 mm | Inhibitory activity of S. salivarius K12 in presence of saccharides, S. aureus A222 (S. aureus A222; saccharide range 0.83%-3.3% w/v): ✓ | zone of inhibition at 0.5 % strength (S. aureus A222; Staphylococcus aureus, A222, Galactose 0.5% w/w, read-out: Size of zone inhibition normalised to control, S. aureus A222): 12 mm | zone of inhibition at 1.25 % strength (S. aureus A222; Staphylococcus aureus, A222, Galactose 1.25% w/w, read-out: Size of zone inhibition normalised to control, S. aureus A222): 8 mm | zone of inhibition at 1.7 % strength (S. aureus A222; Staphylococcus aureus, A222, Galactose 1.7% w/w, read-out: Size of zone inhibition normalised to control, S. aureus A222): 9 mm | zone of inhibition at 2.5 % strength (S. aureus A222; Staphylococcus aureus, A222, Galactose 2.5% w/w, read-out: Size of zone inhibition normalised to control, S. aureus A222): 6 mm | zone of inhibition at 3.3 % strength (S. aureus A222; Staphylococcus aureus, A222, Galactose 3.3% w/w, read-out: Size of zone inhibition normalised to control, S. aureus A222): 0 mm | zone of inhibition at 5 % strength (S. aureus A222; Staphylococcus aureus, A222, Galactose 5% w/w, read-out: Size of zone inhibition normalised to control, S. aureus A222): 0 mm | zone of inhibition at 0.5 % strength (S. mutans OMZ175; Galactose 0.5% w/w): 10 mm | zone of inhibition at 1.25 % strength (S. mutans OMZ175; Galactose 1.25% w/w): 10 mm | zone of inhibition at 1.7 % strength (S. mutans OMZ175; Galactose 1.7% w/w): 0 mm | zone of inhibition at 2.5 % strength (S. mutans OMZ175; Galactose 2.5% w/w): 0 mm | zone of inhibition at 3.3 % strength (S. mutans OMZ175; Galactose 3.3% w/w): 0 mm | zone of inhibition at 5 % strength (S. mutans OMZ175; Galactose 5% w/w): 0 mm | increase in zone of inhibition M. catarrhalis TW1 (M. catarrhalis TW1; 1.0% (w/v) galactose): 12 mm | increase in zone of inhibition M. catarrhalis TW1 (M. catarrhalis TW1; 1.5% (w/v) galactose): 23 mm | Total stains inhibited (indicator strains; Galactose 0.5% w/w): 5/7 | Total stains inhibited (indicator strains; Galactose 1.25% w/w): 4/7 | Total stains inhibited (indicator strains; Galactose 1.7% w/w): 1/7 | Total stains inhibited (indicator strains; Galactose 2.5% w/w): 2/7 | Total stains inhibited (indicator strains; Galactose 3.3% w/w): 5/7 | Total stains inhibited (indicator strains; Galactose 5% w/w): 2/7

Reference: US20240390434A1, “PROBIOTIC ENHANCERS AND USES THEREOF” (Blis Technologies Limited, priority 2021, published 2024)
